{"source": "the supplement of paper PMC11208160", "assay": "recombinant barcode read abundance after kanamycin selection (control-corrected) (log10(CPM+1)); higher = more efficient recombination; sequences stand for … in AGTGCAGAGAAAATCGGCCAGTTTTCTCTGCCTGCAGTCCGCATGCCGT…ATTTATGCAGCGGACTGCCTTTCTCCCAAAGTGATAAACCGGACAGTATCATGGACCGGTTTTCCCGGTAATCCGTATTTGCAAGGTTGGTTTCACT; site = the 11-nt target", "outline": "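Duplicate cultures were plated either on chloramphenicol/ampicillin LB agar, serving as control, or on chloramphenicol/ampicillin/kanamycin with 0.1 mM IPTG. These came from a pooled E. coli library co-electroporated with a donor plasmid, each member pairing a target with an IS621 bridge RNA target-binding loop. Recombination efficiency equals averaged, control-corrected counts per million of recombinant-junction barcodes. It is listed as log10(CPM+1).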"}
{"sequence": "CATATTACTTGGGTTCTAACCTGTTGCCTAT [CATATTACTAG_LTGcore_CT_RTGcore_AT] (site CATATTACTAG) (LTG core: CT, RTG core: AT)", "values": [{"measurement": "recombinant barcode read abundance (log10)", "result": 0.0875}]}
{"sequence": "CATATTACTTGGGTTCTAACCTGTTGCCTGC [CATATTACTAG_LTGcore_CT_RTGcore_GC] (site CATATTACTAG) (LTG core: CT, RTG core: GC)", "values": [{"measurement": "recombinant barcode read abundance (log10)", "result": 0.0956}]}
{"sequence": "CATATTACTTGGGTTCTAACCTGTTGCCTGT [CATATTACTAG_LTGcore_CT_RTGcore_AC] (site CATATTACTAG) (LTG core: CT, RTG core: AC)", "values": [{"measurement": "recombinant barcode read abundance (log10)", "result": 0.00796}]}
{"sequence": "CATATTAGCTGGGTTCTAACCTGTTGCCTGC [CATATTACTAG_LTGcore_GC_RTGcore_GC] (site CATATTACTAG) (LTG core: GC, RTG core: GC)", "values": [{"measurement": "recombinant barcode read abundance (log10)", "result": 0}]}
{"sequence": "CATATTAGTTGGGTTCTAACCTGTTGCCTAC [CATATTACTAG_LTGcore_GT_RTGcore_GT] (site CATATTACTAG) (LTG core: GT, RTG core: GT)", "values": [{"measurement": "recombinant barcode read abundance (log10)", "result": 0.1}]}
{"sequence": "CATATTAGTTGGGTTCTAACCTGTTGCCTAG [CATATTACTAG_LTGcore_GT_RTGcore_CT] (site CATATTACTAG) (LTG core: GT, RTG core: CT)", "values": [{"measurement": "recombinant barcode read abundance (log10)", "result": 0.209}]}
{"sequence": "CATATTATCTGGGTTCTAACCTGTTGCCTGA [CATATTACTAG_LTGcore_TC_RTGcore_TC] (site CATATTACTAG) (LTG core: TC, RTG core: TC)", "values": [{"measurement": "recombinant barcode read abundance (log10)", "result": 0.0468}]}
{"sequence": "CATATTATGTGGGTTCTAACCTGTTGCCTCA [CATATTACTAG_LTGcore_TG_RTGcore_TG] (site CATATTACTAG) (LTG core: TG, RTG core: TG)", "values": [{"measurement": "recombinant barcode read abundance (log10)", "result": 0.0228}]}
{"sequence": "CGAGCCCCATGGGTTCTAACCTGTTGCTGAG [CGAGCCCCTCA_LTGcore_CA_RTGcore_CT] (site CGAGCCCCTCA) (LTG core: CA, RTG core: CT)", "values": [{"measurement": "recombinant barcode read abundance (log10)", "result": 1.27}]}
{"sequence": "CGAGCCCCATGGGTTCTAACCTGTTGCTGTG [CGAGCCCCTCA_LTGcore_CA_RTGcore_CA] (site CGAGCCCCTCA) (LTG core: CA, RTG core: CA)", "values": [{"measurement": "recombinant barcode read abundance (log10)", "result": 0.111}]}
{"sequence": "CGAGCCCCGTGGGTTCTAACCTGTTGCTGCG [CGAGCCCCTCA_LTGcore_CG_RTGcore_CG] (site CGAGCCCCTCA) (LTG core: CG, RTG core: CG)", "values": [{"measurement": "recombinant barcode read abundance (log10)", "result": 0.493}]}
{"sequence": "CGAGCCCCTTGGGTTCTAACCTGTTGCTGAA [CGAGCCCCTCA_LTGcore_CT_RTGcore_TT] (site CGAGCCCCTCA) (LTG core: CT, RTG core: TT)", "values": [{"measurement": "recombinant barcode read abundance (log10)", "result": 0.691}]}
{"sequence": "CGAGCCCCTTGGGTTCTAACCTGTTGCTGCC [CGAGCCCCTCA_LTGcore_CT_RTGcore_GG] (site CGAGCCCCTCA) (LTG core: CT, RTG core: GG)", "values": [{"measurement": "recombinant barcode read abundance (log10)", "result": 0.235}]}
{"sequence": "CGAGCCCCTTGGGTTCTAACCTGTTGCTGCG [CGAGCCCCTCA_LTGcore_CT_RTGcore_CG] (site CGAGCCCCTCA) (LTG core: CT, RTG core: CG)", "values": [{"measurement": "recombinant barcode read abundance (log10)", "result": 0.339}]}
{"sequence": "CGAGCCCCTTGGGTTCTAACCTGTTGCTGGA [CGAGCCCCTCA_LTGcore_CT_RTGcore_TC] (site CGAGCCCCTCA) (LTG core: CT, RTG core: TC)", "values": [{"measurement": "recombinant barcode read abundance (log10)", "result": 0.994}]}
{"sequence": "CGAGCCCCTTGGGTTCTAACCTGTTGCTGTG [CGAGCCCCTCA_LTGcore_CT_RTGcore_CA] (site CGAGCCCCTCA) (LTG core: CT, RTG core: CA)", "values": [{"measurement": "recombinant barcode read abundance (log10)", "result": 0.176}]}
{"sequence": "CGAGCCCGGTGGGTTCTAACCTGTTGCTGAG [CGAGCCCCTCA_LTGcore_GG_RTGcore_CT] (site CGAGCCCCTCA) (LTG core: GG, RTG core: CT)", "values": [{"measurement": "recombinant barcode read abundance (log10)", "result": 0.223}]}
{"sequence": "CGAGCCCGTTGGGTTCTAACCTGTTGCTGAC [CGAGCCCCTCA_LTGcore_GT_RTGcore_GT] (site CGAGCCCCTCA) (LTG core: GT, RTG core: GT)", "values": [{"measurement": "recombinant barcode read abundance (log10)", "result": 0.156}]}
{"sequence": "CGAGCCCTATGGGTTCTAACCTGTTGCTGTA [CGAGCCCCTCA_LTGcore_TA_RTGcore_TA] (site CGAGCCCCTCA) (LTG core: TA, RTG core: TA)", "values": [{"measurement": "recombinant barcode read abundance (log10)", "result": 0.083}]}
{"sequence": "CGAGCCCTCTGGGTTCTAACCTGTTGCTGAG [CGAGCCCCTCA_LTGcore_TC_RTGcore_CT] (site CGAGCCCCTCA) (LTG core: TC, RTG core: CT)", "values": [{"measurement": "recombinant barcode read abundance (log10)", "result": 0.0668}]}
{"sequence": "CGAGCCCTGTGGGTTCTAACCTGTTGCTGAG [CGAGCCCCTCA_LTGcore_TG_RTGcore_CT] (site CGAGCCCCTCA) (LTG core: TG, RTG core: CT)", "values": [{"measurement": "recombinant barcode read abundance (log10)", "result": 0.134}]}
{"sequence": "CGAGCCCTTTGGGTTCTAACCTGTTGCTGAA [CGAGCCCCTCA_LTGcore_TT_RTGcore_TT] (site CGAGCCCCTCA) (LTG core: TT, RTG core: TT)", "values": [{"measurement": "recombinant barcode read abundance (log10)", "result": 0.0246}]}
{"sequence": "CGCGCCCAATGGGTTCTAACCTGTTGCGGAG [CGCGCCCCTCC_LTGcore_AA_RTGcore_CT] (site CGCGCCCCTCC) (LTG core: AA, RTG core: CT)", "values": [{"measurement": "recombinant barcode read abundance (log10)", "result": 0.173}]}
{"sequence": "CGCGCCCCTTGGGTTCTAACCTGTTGCGGCT [CGCGCCCCTCC_LTGcore_CT_RTGcore_AG] (site CGCGCCCCTCC) (LTG core: CT, RTG core: AG)", "values": [{"measurement": "recombinant barcode read abundance (log10)", "result": 0.0596}]}
{"sequence": "CGCGCCCCTTGGGTTCTAACCTGTTGCGGGA [CGCGCCCCTCC_LTGcore_CT_RTGcore_TC] (site CGCGCCCCTCC) (LTG core: CT, RTG core: TC)", "values": [{"measurement": "recombinant barcode read abundance (log10)", "result": 0.0431}]}
{"sequence": "CGCGCCCCTTGGGTTCTAACCTGTTGCGGTG [CGCGCCCCTCC_LTGcore_CT_RTGcore_CA] (site CGCGCCCCTCC) (LTG core: CT, RTG core: CA)", "values": [{"measurement": "recombinant barcode read abundance (log10)", "result": 0.382}]}
{"sequence": "CGCGCCCTATGGGTTCTAACCTGTTGCGGTA [CGCGCCCCTCC_LTGcore_TA_RTGcore_TA] (site CGCGCCCCTCC) (LTG core: TA, RTG core: TA)", "values": [{"measurement": "recombinant barcode read abundance (log10)", "result": 0.0456}]}
{"sequence": "CGGTCCCAATGGGTTCTAACCTGTTGCCAAG [CGGTCCCCTTG_LTGcore_AA_RTGcore_CT] (site CGGTCCCCTTG) (LTG core: AA, RTG core: CT)", "values": [{"measurement": "recombinant barcode read abundance (log10)", "result": 0.3}]}
{"sequence": "CGGTCCCAATGGGTTCTAACCTGTTGCCATT [CGGTCCCCTTG_LTGcore_AA_RTGcore_AA] (site CGGTCCCCTTG) (LTG core: AA, RTG core: AA)", "values": [{"measurement": "recombinant barcode read abundance (log10)", "result": 0.0857}]}
{"sequence": "CGGTCCCACTGGGTTCTAACCTGTTGCCAAG [CGGTCCCCTTG_LTGcore_AC_RTGcore_CT] (site CGGTCCCCTTG) (LTG core: AC, RTG core: CT)", "values": [{"measurement": "recombinant barcode read abundance (log10)", "result": 0.0364}]}
{"sequence": "CGGTCCCATTGGGTTCTAACCTGTTGCCAAT [CGGTCCCCTTG_LTGcore_AT_RTGcore_AT] (site CGGTCCCCTTG) (LTG core: AT, RTG core: AT)", "values": [{"measurement": "recombinant barcode read abundance (log10)", "result": 0.494}]}
{"sequence": "CGGTCCCCATGGGTTCTAACCTGTTGCCAAG [CGGTCCCCTTG_LTGcore_CA_RTGcore_CT] (site CGGTCCCCTTG) (LTG core: CA, RTG core: CT)", "values": [{"measurement": "recombinant barcode read abundance (log10)", "result": 0.51}]}
{"sequence": "CGGTCCCCCTGGGTTCTAACCTGTTGCCAGG [CGGTCCCCTTG_LTGcore_CC_RTGcore_CC] (site CGGTCCCCTTG) (LTG core: CC, RTG core: CC)", "values": [{"measurement": "recombinant barcode read abundance (log10)", "result": 0.0887}]}
{"sequence": "CGGTCCCCGTGGGTTCTAACCTGTTGCCAAG [CGGTCCCCTTG_LTGcore_CG_RTGcore_CT] (site CGGTCCCCTTG) (LTG core: CG, RTG core: CT)", "values": [{"measurement": "recombinant barcode read abundance (log10)", "result": 0.38}]}
